In US11746370B2, “Methods and compositions for assessing and treating intraocular diseases and disorders” (SMILEBIOTEK ZHUHAI LIMITED, priority 2017, dated 2023):
Entries after “also recorded” stand apart in the source; their conditions may differ.

Columns and labels:
Bacillus megaterium [1] = assay: Antibiotic sensitivity screening test in petri dishes, minimum inhibitory concentration (MIC) method; assay type: cell-based; conditions: FIG. 27; for sensitivity of Bacillus megaterium / control of its growth in vitro: agar medium with antibiotic, 1*10^7 bacteria per culture, 37° C., 24 h
Description: The bacterial culture medium (HuanKai Microbial, Guangzhou, China) containing peptone 5 g, beef extract 3 g, NaCl 5 g, agar 15 g, and MnSO4 5 mg in 1 L ddH2O (pH=7.2) was prepared in conical flask (Drtech, Guangzhou, China) and was sterilized in the autoclave (HIRAYAMA, HEV-50, Japan) at 121° C. for 30 min. Antibiotics (ampicillin, vancomycin, neomycin, metronidazole, and tetracycline, purchased from Sigma, USA) at various concentrations were added into cooled medium. Bacillus megaterium (total 1*10^7 per culture) was cultured in the incubator (HettCube 200, Germany) at 37° C. for 24 h.
To test whether antibiotics can control the growth of Bacillus megaterium in vitro and in vivo, an antibiotic sensitivity screening test in petri dishes was carried out. The sensitivity of Bacillus megaterium to several major antimicrobial agents including Ampicillin, vancomycin, neomycin, metronidazole, and tetracycline were examined using the minimum inhibitory concentration (MIC) method.

Bacillus megaterium [2] = assay: Bacillus megaterium subretinal inoculation model, bacteria-induced drusenoid pathology in monkey retinal tissues; assay type: in vivo; conditions: intravitreous 0.5 mg, one injection on Day 2 post bacterial inoculation, FIG. 28
Description: The macaques were sedated by intramuscular injection of a mixture of tiletamine hydrochloride (2.5 mg/kg) and xolazepam hydrochloride (2.5 mg/kg). After instilling topical anesthesia (0.5% proparacaine hydrochloride), the eyes were immediately visualized in vivo using a light microscope. The pupils were then dilated with 0.5% tropicamide and 0.5% phenylephrine to obtain the fundus photographs. Then a 35 gauge anterior chamber cannula was inserted through a sclerotomy and advanced through the vitreous. Under microscopic monitoring, […] of PBS (with or without bacteria) was injected into the subretinal space between photo receptors and RPE, using a NanoFil Syringe Nanofil-100 for Microinjection (World Precision Instruments, USA). All procedures were done using sterile instruments. The macaque was euthanized 47 days post inoculation and the eyeball was enucleated for histological analyses. The eyeballs were fixed in 4% paraformaldehyde for 48 h and then embedded in paraffin. Sections were cut on a microtome at 6 μm and stained with H&E.
(§1) Next, Bacillus megaterium subretinal inoculation model was used to test whether antibiotics might be able to change the bacteria-induced drusenoid pathology in monkey retinal tissues.

[3] = Intraocular administration in monkey, ocular complications; assay type: in vivo; conditions: data not shown
Excerpt: as §1

| Compound | fold less effective in controlling the growth of Bacillus megaterium (Bacillus megaterium [1]; compared with neomycin) [fold] | size of drusenoid lesion in retinal tissue (Bacillus megaterium [2]) | sensitivity of Bacillus megaterium / control of its growth in vitro (Bacillus megaterium [1]) | ocular complications [3] |
| --- | --- | --- | --- | --- |
| Cc1ncc([N+](=O)[O-])n1CCO [metronidazole] | 10000 | – | – | – |
| CN[C@H](CC(C)C)C(=O)N[C@H]1C(=O)N[C@@H](CC(N)=O)C(=O)N[C@H]2C(=O)N[C@H]3C(=O)N[C@H](C(=O)N[C@H](C(=O)O)c4cc(O)cc(O)c4-c4cc3ccc4O)[C@H](O)c3ccc(c(Cl)c3)Oc3cc2cc(c3O[C@@H]2O[C@H](CO)[C@@H](O)[C@H](O)[C@H]2O[C@H]2C[C@](C)(N)[C@H](O)[C@H](C)O2)Oc2ccc(cc2Cl)[C@H]1O [vancomycin] | – | reduction in the size of drusenoid lesion | able to inhibit the growth | – |
| neomycin | – | – | most sensitive; also recorded: best in vitro activity | significant ocular complications including ophthalmatrophia |
